One experiment addresses DGKζ (Homo sapiens (Human), UniProt Q13574). The experiment in a line: Biochemical DGK IC50 assay (ADP-Glo, lipid micelle substrate), DGKζ. Conditions: full length DGKζ 0.5 nM, ATP 140 μM, DAG 80 μM. Put shortly: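 ADP-Glo luminescence measured ADP made in a 1 h room-temperature reaction. The enzyme was Sf9-expressed, purified full-length human DGKζ, and the substrate was DAG/PS micelles. Assay buffer held 50 mM HEPES, 10 mM MgCl2, 0.01 mM CaCl2, 0.1 mM Na3VO4 and 0.01% BSA. IC50 was derived from activity inhibition over a compound concentration series.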
On the technique in general: In ADP-Glo the light output rises with the ADP produced.

In the next experiment the target is DGKα (Homo sapiens (Human), UniProt P23743). The experiment in a line: Biochemical DGK IC50 assay (ADP-Glo, lipid micelle substrate), DGKα. Also: full length DGKα 7.5 nM. Conditions: full length DGKα […], ATP 140 μM, DAG 80 μM. Put shortly: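 Luminescent ADP-Glo detection followed a 1 h room-temperature reaction of full-length DGKα on DAG/PS micelles, in HEPES buffer with 10 mM MgCl2, 0.01 mM CaCl2, 0.1 mM Na3VO4, BSA and Tween-20. IC50 derived from inhibition across increasing compound concentrations.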
DGKα, sequence (P23743 whole entry): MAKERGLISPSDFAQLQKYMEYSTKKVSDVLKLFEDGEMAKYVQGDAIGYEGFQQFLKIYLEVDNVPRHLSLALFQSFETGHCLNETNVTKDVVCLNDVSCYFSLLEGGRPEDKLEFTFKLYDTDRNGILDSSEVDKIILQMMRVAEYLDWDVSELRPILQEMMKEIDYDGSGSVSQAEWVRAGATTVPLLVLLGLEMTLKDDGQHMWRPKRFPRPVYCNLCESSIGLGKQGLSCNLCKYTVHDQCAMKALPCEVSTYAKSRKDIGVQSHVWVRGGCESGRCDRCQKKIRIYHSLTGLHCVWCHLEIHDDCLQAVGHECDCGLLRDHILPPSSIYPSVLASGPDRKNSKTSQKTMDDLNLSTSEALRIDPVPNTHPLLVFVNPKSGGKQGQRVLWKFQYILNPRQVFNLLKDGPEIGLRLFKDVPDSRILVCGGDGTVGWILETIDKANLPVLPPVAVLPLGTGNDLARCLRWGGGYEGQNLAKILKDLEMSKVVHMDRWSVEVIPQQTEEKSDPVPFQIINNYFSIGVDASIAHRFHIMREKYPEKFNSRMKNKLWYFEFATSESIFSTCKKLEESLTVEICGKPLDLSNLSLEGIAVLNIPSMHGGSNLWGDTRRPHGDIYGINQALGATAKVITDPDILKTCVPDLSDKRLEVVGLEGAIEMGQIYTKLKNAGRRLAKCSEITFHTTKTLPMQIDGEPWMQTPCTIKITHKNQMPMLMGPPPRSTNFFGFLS

The values below come from patent US20250346597A1, “CONDENSED HETEROCYCLIC COMPOUNDS AS INHIBITOR OF DIACYLGLYCEROL KINASES” (BEONE MEDICINES I GMBH, priority 2023, published 2025).

As usually defined, the IC50 is the concentration at which inhibition is half-maximal. Low readings indicate inhibition by little substance, high ones a need for much substance.

DGKζ, sequence (Q13574 other isoform, or with tags, fused parts or gaps): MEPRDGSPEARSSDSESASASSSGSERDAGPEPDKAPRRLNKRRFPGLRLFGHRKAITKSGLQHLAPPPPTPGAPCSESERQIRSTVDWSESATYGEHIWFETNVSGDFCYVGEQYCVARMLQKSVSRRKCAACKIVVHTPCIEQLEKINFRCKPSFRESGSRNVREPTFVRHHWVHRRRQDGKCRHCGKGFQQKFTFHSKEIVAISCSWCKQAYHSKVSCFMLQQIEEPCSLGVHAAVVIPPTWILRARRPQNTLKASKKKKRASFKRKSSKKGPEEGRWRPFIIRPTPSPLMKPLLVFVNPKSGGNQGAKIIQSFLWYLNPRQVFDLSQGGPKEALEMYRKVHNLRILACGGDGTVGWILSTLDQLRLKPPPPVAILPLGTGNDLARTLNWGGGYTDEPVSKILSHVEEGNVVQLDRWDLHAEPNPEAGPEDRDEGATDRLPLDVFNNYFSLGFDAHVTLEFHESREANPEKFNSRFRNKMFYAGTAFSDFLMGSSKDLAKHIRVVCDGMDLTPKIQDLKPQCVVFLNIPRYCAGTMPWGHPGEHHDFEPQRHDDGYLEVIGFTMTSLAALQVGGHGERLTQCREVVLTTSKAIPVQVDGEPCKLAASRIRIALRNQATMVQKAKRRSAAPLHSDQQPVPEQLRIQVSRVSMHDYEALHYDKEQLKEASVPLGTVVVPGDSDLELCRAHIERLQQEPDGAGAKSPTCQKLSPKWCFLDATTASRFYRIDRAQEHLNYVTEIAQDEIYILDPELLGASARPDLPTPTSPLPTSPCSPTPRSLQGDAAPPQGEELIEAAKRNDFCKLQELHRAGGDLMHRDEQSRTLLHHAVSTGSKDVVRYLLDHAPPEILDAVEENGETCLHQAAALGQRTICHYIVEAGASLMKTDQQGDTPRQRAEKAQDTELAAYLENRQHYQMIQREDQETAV

With `CC[C@H]1CN(C(C)c2ccc(CN3CCC(OC)C3)cc2)[C@H](CC)CN1c1cc(=O)n(C)c2cn(CC#N)nc12` (single isomer, unassigned) [Compound A203b], the IC50 came out at 7610 nM against DGKζ and 11600 nM on DGKα.
In the same order, the values of `CC[C@H]1CN(C(C)c2ccc3c(C)cnn3c2)[C@H](CC)CN1c1cc(=O)n(C)c2cn(CC#N)nc12` (single isomer, unassigned) [Compound A204a] are 31 nM and 467 nM.
`CC[C@H]1CN(C(C)c2ccc3c(C)cnn3c2)[C@H](CC)CN1c1cc(=O)n(C)c2cn(CC#N)nc12` (single isomer, unassigned) [Compound A204b]: the IC50 against DGKζ stood at 971 nM; at DGKα, 7300 nM.
Take `CC#CCn1cc2c(n1)c(N1C[C@@H](CC)N(C(C)c3cnc4ccccc4n3)C[C@@H]1CC)cc(=O)n2C` (single isomer, unassigned) [Compound A206a]: the figures for the IC50 against DGKζ and against DGKα were 8300 nM and 480 nM, respectively.
On the same counts, the results for `CC#CCn1cc2c(n1)c(N1C[C@@H](CC)N(C(C)c3cnc4ccccc4n3)C[C@@H]1CC)cc(=O)n2C` (single isomer, unassigned) [Compound A206b] are 103 nM and 25 nM.
As to `CC[C@H]1CN(C(C)c2cc(F)c(CN3CCS(=O)(=O)CC3)c(F)c2)[C@H](CC)CN1c1cc(=O)n(C)c2cn(CC#N)nc12` (stereo partly drawn) [Compound A5, 2-(7-((2S,5R)-4-(1-(4-((1,1-dioxidothiomorpholino)methyl)-3,5-difluorophenyl)ethyl)-2,5-diethylpiperazin-1-yl)-4-methyl-5-oxo-4,5-dihydro-2H-pyrazolo[4,3-b]pyridin-2-yl)acetonitrile], the IC50 came out at 73 nM against DGKζ and 497 nM at DGKα.
Turning to `CC[C@H]1CN(C(C)c2ccc(C)cc2C)[C@H](CC)CN1c1cc(=O)n(C)c2cn(CC#N)nc12` (stereo partly drawn) [Compound A6, 2-(7-((2S,5R)-4-(1-(2,4-dimethylphenyl)ethyl)-2,5-diethylpiperazin-1-yl)-4-methyl-5-oxo-4,5-dihydro-2H-pyrazolo[4,3-b]pyridin-2-yl)acetonitrile], the values for the IC50 at DGKζ and on DGKα were 219 nM and 8530 nM, respectively.
Turning to `CCc1ccc(C(C)N2C[C@H](CC)N(c3cc(=O)n(C)c4cn(CC#N)nc34)C[C@H]2CC)cc1` (stereo partly drawn) [Compound A7, 2-(7-((2S,5R)-2,5-diethyl-4-(1-(4-ethylphenyl)ethyl)piperazin-1-yl)-4-methyl-5-oxo-4,5-dihydro-2H-pyrazolo[4,3-b]pyridin-2-yl)acetonitrile], the half-inhibitory concentration (IC50) at DGKζ came out at 152 nM; against DGKα, 129 nM.
Consider `CC[C@H]1CN(C(C)c2ccc(C(F)(F)F)c(C)c2)[C@H](CC)CN1c1cc(=O)n(C)c2cn(CC#N)nc12` (stereo partly drawn) [Compound A8, 2-(7-((2S,5R)-2,5-diethyl-4-(1-(3-methyl-4-(trifluoromethyl)phenyl)ethyl)piperazin-1-yl)-4-methyl-5-oxo-4,5-dihydro-2H-pyrazolo[4,3-b]pyridin-2-yl)acetonitrile], for which the IC50 on DGKζ came to 229 nM; on DGKα it was 1000 nM.
In the same order, the values of `CC[C@H]1CN(C(C)c2ccc(OC)c(C)c2)[C@H](CC)CN1c1cc(=O)n(C)c2cn(CC#N)nc12` (stereo partly drawn) [Compound A9, 2-(7-((2S,5R)-2,5-diethyl-4-(1-(4-methoxy-3-methylphenyl)ethyl)piperazin-1-yl)-4-methyl-5-oxo-4,5-dihydro-2H-pyrazolo[4,3-b]pyridin-2-yl)acetonitrile] are 339 nM and 2110 nM.
As for `CC[C@H]1CN(C(C)c2ccc(C(C)(F)F)cc2)[C@H](CC)CN1c1cc(=O)n(C)c2cn(CC#N)nc12` (stereo partly drawn) [Compound A10, 2-(7-((2S,5R)-4-(1-(4-(1,1-difluoroethyl)phenyl)ethyl)-2,5-diethylpiperazin-1-yl)-4-methyl-5-oxo-4,5-dihydro-2H-pyrazolo[4,3-b]pyridin-2-yl)acetonitrile], the IC50 was found to be 104 nM against DGKζ and 162 nM at DGKα.
In the same order, the values of `CC[C@H]1CN(C(C)c2ccc(OCCOC)cc2)[C@H](CC)CN1c1cc(=O)n(C)c2cn(CC#N)nc12` (stereo partly drawn) [Compound A11, 2-(7-((2S,5R)-2,5-diethyl-4-(1-(4-(2-methoxyethoxy)phenyl)ethyl)piperazin-1-yl)-4-methyl-5-obo-4,5-dihydro-2H-pyrazolo[4,3-b]pyridin-2-yl)acetonitrile] are 500 nM and 79 nM.
In the same order, the values of `CC[C@H]1CN(C(C)c2ccc(OC)cc2F)[C@H](CC)CN1c1cc(=O)n(C)c2cn(CC#N)nc12` (stereo partly drawn) [Compound A12, 2-(7-((2S,5R)-2,5-diethyl-4-(1-(2-fluoro-4-methoxyphenyl)ethyl)piperazin-1-yl)-4-methyl-5-oxo-4,5-dihydro-2H-pyrazolo[4,3-b]pyridin-2-yl)acetonitrile] are 92 nM and 440 nM.
With `CC[C@H]1CN(C(C)c2ccc(OC3CCOC3)cc2F)[C@H](CC)CN1c1cc(=O)n(C)c2cn(CC#N)nc12` (stereo partly drawn) [Compound A13, 2-(7-((2S,5R)-2,5-diethyl-4-(1-(2-fluoro-4-((tetrahydrofuran-3-yl)oxy)phenyl)ethyl)piperazin-1-yl)-4-methyl-5-oxo-4,5-dihydro-2H-pyrazolo[4,3-b]pyridin-2-yl)acetonitrile], the IC50 on DGKζ came to 323 nM; against DGKα it was 838 nM.
For `CC[C@H]1CN(C(C)c2ccc(OC)cc2C)[C@H](CC)CN1c1cc(=O)n(C)c2cn(CC#N)nc12` (stereo partly drawn) [Compound A14, 2-(7-((2S,5R)-2,5-diethyl-4-(1-(4-methoxy-2-methylphenyl)ethyl)piperazin-1-yl)-4-methyl-5-oxo-4,5-dihydro-2H-pyrazolo[4,3-b]pyridin-2-yl)acetonitrile], the IC50 worked out at 63 nM on DGKζ and 8410 nM at DGKα.
In the case of `CC[C@H]1CN(C(C)c2ccc(COC3CCOCC3)cc2)[C@H](CC)CN1c1cc(=O)n(C)c2cn(CC#N)nc12` (stereo partly drawn) [Compound A15, 2-(7-((2S,5R)-2,5-diethyl-4-(1-(4-(((tetrahydro-2H-pyran-4-yl)oxy)methyl)phenyl)ethyl)piperazin-1-yl)-4-methyl-5-oxo-4,5-dihydro-2H-pyrazolo[4,3-b]pyridin-2-yl)acetonitrile], the IC50 at DGKζ stood at 219 nM; on DGKα, 193 nM.
For `CC[C@H]1CN(C(C)c2ccc(COC3COC3)cc2)[C@H](CC)CN1c1cc(=O)n(C)c2cn(CC#N)nc12` (stereo partly drawn) [Compound A16, 2-(7-((2S,5R)-2,5-diethyl-4-(1-(4-((oxetan-3-yloxy)methyl)phenyl)ethyl)piperazin-1-yl)-4-methyl-5-oxo-4,5-dihydro-2H-pyrazolo[4,3-b]pyridin-2-yl)acetonitrile], the results for the IC50 against DGKζ and against DGKα were 170 nM and 204 nM, respectively.
Take `CC[C@H]1CN(C(C)c2ccc(COC3CCOC3)cc2)[C@H](CC)CN1c1cc(=O)n(C)c2cn(CC#N)nc12` (stereo partly drawn) [Compound A17, 2-(7-((2S,5R)-2,5-diethyl-4-(1-(4-(((tetrahydrofuran-3-yl)oxy)methyl)phenyl)ethyl)piperazin-1-yl)-4-methyl-5-oxo-4,5-dihydro-2H-pyrazolo[4,3-b]pyridin-2-yl)acetonitrile]: the IC50 stood at 315 nM at DGKζ and 343 nM against DGKα.
Regarding `CC[C@H]1CN(C(C)c2ccc(COCCOC)cc2)[C@H](CC)CN1c1cc(=O)n(C)c2cn(CC#N)nc12` (stereo partly drawn) [Compound A18, 2-(7-((2S,5R)-2,5-diethyl-4-(1-(4-((2-methoxyethoxy)methyl)phenyl)ethyl)piperazin-1-yl)-4-methyl-5-oxo-4,5-dihydro-2H-pyrazolo[4,3-b]pyridin-2-yl)acetonitrile], the values for the IC50 against DGKζ and against DGKα were 97 nM and 249 nM, respectively.
Consider `CC[C@H]1CN(C(C)c2ccc(OC)c(F)c2)[C@H](CC)CN1c1cc(=O)n(C)c2cn(CC#N)nc12` (stereo partly drawn) [Compound A20, 2-(7-((2S,5R)-2,5-diethyl-4-(1-(3-fluoro-4-methoxyphenyl)ethyl)piperazin-1-yl)-4-methyl-5-oxo-4,5-dihydro-2H-pyrazolo[4,3-b]pyridin-2-yl)acetonitrile], for which the IC50 against DGKζ was found to be 312 nM; against DGKα it was 378 nM.
Regarding `CC[C@H]1CN(C(C)c2ccc(OC3COC3)cc2F)[C@H](CC)CN1c1cc(=O)n(C)c2cn(CC#N)nc12` (stereo partly drawn) [Compound A22, 2-(7-((2S,5R)-2,5-diethyl-4-(1-(2-fluoro-4-(oxetan-3-yloxy)phenyl)ethyl)piperazin-1-yl)-4-methyl-5-oxo-4,5-dihydro-2H-pyrazolo[4,3-b]pyridin-2-yl)acetonitrile], the IC50 at DGKζ is 465 nM; at DGKα it was 833 nM.
`CC[C@H]1CN(C(C)c2ccc(OC3(C)COC3)cc2)[C@H](CC)CN1c1cc(=O)n(C)c2cn(CC#N)nc12` (stereo partly drawn) [Compound A24, 2-(7-((2S,5R)-2,5-diethyl-4-(1-(4-((3-methyloxetan-3-yl)oxy)phenyl)ethyl)piperazin-1-yl)-4-methyl-5-oxo-4,5-dihydro-2H-pyrazolo[4,3-b]pyridin-2-yl)acetonitrile]: the IC50 against DGKζ was found to be 427 nM; against DGKα, 100 nM.
Turning to `CC[C@H]1CN(C(C)c2ccc(CN3CC(F)(F)C3)cc2)[C@H](CC)CN1c1cc(=O)n(C)c2cn(CC#N)nc12` (stereo partly drawn) [Compound A27, 2-(7-((2S,5R)-4-(1-(4-((3,3-difluoroazetidin-1-yl)methyl)phenyl)ethyl)-2,5-diethylpiperazin-1-yl)-4-methyl-5-oxo-4,5-dihydro-2H-pyrazolo[4,3-b]pyridin-2-yl)acetonitrile], the IC50 on DGKζ came out at 202 nM; against DGKα, 50 nM.
